One experiment has as its target TYK2 (Homo sapiens, UniProt P29597). The experiment in a line: TYK2 biochemical test (33P-ATP filter binding kinase assay). To be noted: room temperature, 2 hours. The procedure:
(§1) The tests were conducted by Reaction Biology Corp, Malvern, PA (Anastassiadis et al. Nat Biotechnol. 2011; 29(11):1039-45). The step is briefly described as follows.
(§2) Basic reaction buffer: 20 mM Hepes (pH 7.5), 10 mM MgCl2, 1 mM EGTA, 0.02% Brij35, 0.02 mg/ml BSA, 0.1 mM Na3VO4, 2 mM DTT and 1% DMSO. The required cofactor was added to each kinase reaction respectively.
(§3) • 1. Preparing the designated substrate in the newly prepared basic reaction buffer; • 2. Transferring the required cofactor to the above matrix solution; • 3. Transferring the designated kinase to the substrate solution and mixing well slightly; • 4. Transferring a compound of formulae I-III in DMSO to the kinase reaction mixture with Acoustic technique (Echo550; nanoliter range), culturing for 20 minutes at room temperature; • 5. Introducing ^33P-ATP (specific activity: 10 μCi/μl) to the reaction mixture to trigger a reaction; • 6. Culturing at room temperature and conducting a kinase reaction for 2 hours; • 7. Plotting the reaction on P81 ion exchange paper; • 8. Testing the kinase activity with a filter binding assay.

For another experiment, the target named is JAK1 (Homo sapiens, UniProt P23458). Description: JAK1 biochemical test (33P-ATP filter binding kinase assay). As to conditions: room temperature, 2 hours. The procedure:
as §1, §2, §3

In a further experiment the target is JAK2 (Homo sapiens, UniProt O60674). Description: JAK2 biochemical test (33P-ATP filter binding kinase assay). As to conditions: room temperature, 2 hours. The method, then:
as §1, §2, §3

The test system of the next experiment is TYK2/JAK1/JAK2. Description: TYK2/JAK1/JAK2 biochemical tests, comparative summary. The procedure: as §1, §2, §3

SMILES strings stand for the structures.

TYK2, sequence (P29597 whole entry): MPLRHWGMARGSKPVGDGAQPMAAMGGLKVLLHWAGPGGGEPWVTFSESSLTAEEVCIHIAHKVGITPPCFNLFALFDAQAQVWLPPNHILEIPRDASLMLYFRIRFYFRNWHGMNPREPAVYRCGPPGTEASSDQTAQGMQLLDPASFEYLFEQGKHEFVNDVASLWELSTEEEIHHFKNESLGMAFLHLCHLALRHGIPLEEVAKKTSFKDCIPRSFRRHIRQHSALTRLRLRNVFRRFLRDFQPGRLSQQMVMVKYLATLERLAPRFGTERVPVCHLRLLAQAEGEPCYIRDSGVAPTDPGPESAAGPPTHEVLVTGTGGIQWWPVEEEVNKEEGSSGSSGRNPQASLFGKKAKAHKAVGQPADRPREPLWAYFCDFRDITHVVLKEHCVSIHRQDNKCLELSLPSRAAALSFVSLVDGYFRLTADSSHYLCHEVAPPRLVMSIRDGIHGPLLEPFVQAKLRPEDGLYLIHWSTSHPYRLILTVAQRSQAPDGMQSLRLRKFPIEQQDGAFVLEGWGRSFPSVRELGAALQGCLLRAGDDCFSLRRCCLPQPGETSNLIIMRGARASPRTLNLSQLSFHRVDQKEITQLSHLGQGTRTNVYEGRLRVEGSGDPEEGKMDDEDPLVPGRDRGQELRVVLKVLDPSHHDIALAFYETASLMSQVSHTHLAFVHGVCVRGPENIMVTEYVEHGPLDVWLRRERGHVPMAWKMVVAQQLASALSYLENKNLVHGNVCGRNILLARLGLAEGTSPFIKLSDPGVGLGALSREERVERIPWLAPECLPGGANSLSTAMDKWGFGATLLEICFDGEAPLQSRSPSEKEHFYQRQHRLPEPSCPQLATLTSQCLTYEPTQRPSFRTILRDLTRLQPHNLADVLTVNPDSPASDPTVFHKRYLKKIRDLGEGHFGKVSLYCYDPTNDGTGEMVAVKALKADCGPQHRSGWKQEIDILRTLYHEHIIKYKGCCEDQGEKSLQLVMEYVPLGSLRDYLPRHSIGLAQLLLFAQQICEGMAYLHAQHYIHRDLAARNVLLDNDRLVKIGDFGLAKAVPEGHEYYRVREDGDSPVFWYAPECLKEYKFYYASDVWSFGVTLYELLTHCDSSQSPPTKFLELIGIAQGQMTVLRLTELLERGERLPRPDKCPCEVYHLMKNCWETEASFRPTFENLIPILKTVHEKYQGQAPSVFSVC
JAK2, sequence (O60674 whole entry): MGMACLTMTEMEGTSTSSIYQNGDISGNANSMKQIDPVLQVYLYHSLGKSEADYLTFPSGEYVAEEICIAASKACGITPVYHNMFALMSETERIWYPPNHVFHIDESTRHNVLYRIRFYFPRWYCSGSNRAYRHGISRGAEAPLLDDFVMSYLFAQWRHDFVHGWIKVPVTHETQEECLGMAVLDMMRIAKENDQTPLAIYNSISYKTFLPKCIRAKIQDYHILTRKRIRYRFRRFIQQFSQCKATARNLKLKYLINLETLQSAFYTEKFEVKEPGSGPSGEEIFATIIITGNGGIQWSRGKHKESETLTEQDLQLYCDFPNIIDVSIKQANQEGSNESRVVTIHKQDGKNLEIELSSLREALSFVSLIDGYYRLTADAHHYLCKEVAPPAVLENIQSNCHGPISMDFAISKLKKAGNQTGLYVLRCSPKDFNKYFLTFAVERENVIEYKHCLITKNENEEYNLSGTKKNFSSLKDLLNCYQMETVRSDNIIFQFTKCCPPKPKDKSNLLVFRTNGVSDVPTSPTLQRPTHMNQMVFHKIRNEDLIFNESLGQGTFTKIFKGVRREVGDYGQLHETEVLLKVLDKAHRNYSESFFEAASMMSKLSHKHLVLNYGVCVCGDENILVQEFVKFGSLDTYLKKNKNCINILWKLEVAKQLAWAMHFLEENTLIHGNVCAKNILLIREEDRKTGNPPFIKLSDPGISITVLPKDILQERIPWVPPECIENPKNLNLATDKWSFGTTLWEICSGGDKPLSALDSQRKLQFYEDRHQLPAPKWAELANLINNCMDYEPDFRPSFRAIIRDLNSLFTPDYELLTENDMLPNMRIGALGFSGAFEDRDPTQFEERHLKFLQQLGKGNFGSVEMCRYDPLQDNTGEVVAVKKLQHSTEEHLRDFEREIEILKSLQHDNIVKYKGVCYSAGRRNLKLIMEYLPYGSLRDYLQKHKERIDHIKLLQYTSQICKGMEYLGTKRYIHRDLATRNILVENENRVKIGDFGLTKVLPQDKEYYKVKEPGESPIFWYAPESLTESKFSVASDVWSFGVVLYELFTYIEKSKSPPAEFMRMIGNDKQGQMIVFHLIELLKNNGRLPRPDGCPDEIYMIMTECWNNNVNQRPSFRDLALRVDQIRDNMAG
JAK1, sequence (P23458 whole entry): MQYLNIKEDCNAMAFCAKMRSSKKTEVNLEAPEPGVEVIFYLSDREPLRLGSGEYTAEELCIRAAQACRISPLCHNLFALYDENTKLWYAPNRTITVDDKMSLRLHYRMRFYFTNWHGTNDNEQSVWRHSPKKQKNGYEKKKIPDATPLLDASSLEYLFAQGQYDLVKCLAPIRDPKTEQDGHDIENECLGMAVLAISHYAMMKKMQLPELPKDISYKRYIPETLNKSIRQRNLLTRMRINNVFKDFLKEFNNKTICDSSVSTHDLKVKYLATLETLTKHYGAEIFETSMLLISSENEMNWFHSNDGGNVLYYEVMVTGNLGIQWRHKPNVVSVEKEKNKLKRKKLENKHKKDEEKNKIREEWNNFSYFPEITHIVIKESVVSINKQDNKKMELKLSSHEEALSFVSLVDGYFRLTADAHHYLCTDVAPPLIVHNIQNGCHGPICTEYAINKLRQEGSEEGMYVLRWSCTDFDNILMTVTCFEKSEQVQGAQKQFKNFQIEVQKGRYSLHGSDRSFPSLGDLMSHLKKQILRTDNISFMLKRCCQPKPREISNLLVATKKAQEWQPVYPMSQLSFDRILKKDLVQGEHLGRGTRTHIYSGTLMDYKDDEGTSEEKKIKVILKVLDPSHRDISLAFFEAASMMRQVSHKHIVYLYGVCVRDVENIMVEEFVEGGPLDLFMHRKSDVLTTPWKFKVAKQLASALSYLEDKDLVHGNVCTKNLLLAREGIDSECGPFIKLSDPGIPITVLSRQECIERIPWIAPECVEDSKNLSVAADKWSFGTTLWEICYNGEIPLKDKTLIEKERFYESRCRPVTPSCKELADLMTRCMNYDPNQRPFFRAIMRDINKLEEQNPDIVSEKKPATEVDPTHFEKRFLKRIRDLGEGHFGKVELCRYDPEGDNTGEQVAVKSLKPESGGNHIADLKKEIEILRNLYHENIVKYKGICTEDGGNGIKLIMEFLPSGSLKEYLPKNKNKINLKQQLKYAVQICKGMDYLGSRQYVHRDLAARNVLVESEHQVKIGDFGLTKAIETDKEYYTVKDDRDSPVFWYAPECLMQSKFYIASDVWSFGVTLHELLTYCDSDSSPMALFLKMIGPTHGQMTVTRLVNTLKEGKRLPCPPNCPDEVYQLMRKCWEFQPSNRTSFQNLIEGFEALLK

The term IC50 denotes the concentration that inhibits the measured activity by half. On to `CCS(=O)(=O)N1CC(CC#N)(n2cc(-c3nc(Nc4cnn(C)c4)ncc3C3CC3)cn2)C1` [Compound 2, 2-(3-(4-(5-cyclopropyl-2-((1-methyl-1H-pyrazol-4-yl)amino)pyrimidin-4-yl)-1H-pyrazol-1-yl)-1-(ethylsulfonyl)azetidin-3-yl) acetonitrile], for which the values for the IC50 at TYK2, on JAK1 and on JAK2 were under 1 nM, under 10 nM and under 1 nM, respectively. The “TYK2/JAK1/JAK2 inhibition (in words)” value in the experiment on TYK2/JAK1/JAK2 is “potent TYK2/JAK1/JAK2 inhibitors”.
As to `Cc1cnc(Nc2cnoc2)nc1-c1cnn([C@H](CC#N)C2CCCC2)c1` [Compound 5, (R)-3-cyclopentyl-3-(4-(2-(isoxazol-4-ylamino)-5-methylpyrimidin-4-yl)-1H-pyrazol-1-yl) propanenitrile], the concentration for half-maximal inhibition (IC50) on TYK2, at JAK1 and at JAK2 was under 1 nM each time. Further, in the experiment on TYK2/JAK1/JAK2, the “TYK2/JAK1/JAK2 inhibition (in words)” value is “potent TYK2/JAK1/JAK2 inhibitors”.
As to `Cc1cnc(Nc2cnn(CC3CCOCC3)c2)nc1-c1cnn([C@H](CC#N)C2CCCC2)c1` [Compound 6, (R)-3-cyclopentyl-3-(4-(5-methyl-2-((1-((tetrahydro-2H-pyran-4-yl)methyl)-1H-pyrazol-4-yl)amino)pyrimidin-4-yl)-1H-pyrazol-1-yl)propanenitrile], the IC50 on TYK2, at JAK1 and on JAK2 was under 1 nM throughout. For the same compound, in the experiment on TYK2/JAK1/JAK2, the “TYK2/JAK1/JAK2 inhibition (in words)” value is “potent TYK2/JAK1/JAK2 inhibitors”.
With `Cc1cnc(Nc2cnn(C3CCOCC3)c2)nc1-c1cnn([C@H](CC#N)C2CCCC2)c1` [Compound 7, (R)-3-cyclopentyl-3-(4-(5-methyl-2-((1-(tetrahydro-2H-pyran-4-yl)-1H-pyrazol-4-yl)amino)pyrimidin-4-yl)-1H-pyrazol-1-yl)propanenitrile], the IC50 at TYK2, at JAK1 and at JAK2 was under 1 nM throughout. The “TYK2/JAK1/JAK2 inhibition (in words)” value with TYK2/JAK1/JAK2 is “potent TYK2/JAK1/JAK2 inhibitors”.
On to `Cc1cnc(Nc2cnn(C3COC3)c2)nc1-c1cnn([C@H](CC#N)C2CCCC2)c1` [Compound 8, (R)-3-cyclopentyl-3-(4-(5-methyl-2-((1-(oxetan-3-yl)-1H-pyrazol-4-yl)amino)pyrimidin-4-yl)-1H-pyrazol-1-yl) propanenitrile], for which the 50% inhibitory concentration (IC50) at TYK2, on JAK1 and on JAK2 was under 1 nM in each case. For the same compound, the “TYK2/JAK1/JAK2 inhibition (in words)” value with TYK2/JAK1/JAK2 is recorded as “potent TYK2/JAK1/JAK2 inhibitors”.
At TYK2, `N#CC[C@H](C1CCCC1)n1cc(-c2nc(Nc3cnn(C4CCOCC4)c3)ncc2Cl)cn1` [Compound 11] had an IC50 of under 1 nM. Moreover, the “TYK2/JAK1/JAK2 inhibition (in words)” value in the experiment with TYK2/JAK1/JAK2 is “potent TYK2/JAK1/JAK2 inhibitors”.
Regarding `CCS(=O)(=O)N1CC(CC#N)(n2cc(-c3nc(Nc4ccn(C)n4)ncc3C)cn2)C1.Cl` [Compound 14, 2-(1-(ethylsulfonyl)-3-(4-(5-methyl-2-((1-methyl-1H-pyrazol-3-yl)amino)pyrimidin-4-yl)-1H-pyrazol-1-yl)azetidin-3-yl)acetonitrile hydrochloride, reference compound], the IC50 at TYK2 and at JAK1 was over 10 nM in each case. In addition, the “fold less potent than its 2-((pyrazol-4-yl)amino) analog (example 18)” value in the experiment on TYK2/JAK1/JAK2 (compared with example 18) is recorded as over 10 ×.
Regarding `Cc1cnc(Nc2cnn(C)c2)nc1N(C)[C@H]1CN(C(=O)CC#N)CC[C@H]1C` [Compound 22, 3-((3R,4R)-4-methyl-3-(methyl(5-methyl-2-((1-methyl-1H-pyrazol-4-yl)amino)pyrimidin-4-yl)amino)piperidin-1-yl)-3-oxopropanenitrile, reference compound], the IC50 on TYK2 and at JAK1 was over 100 nM throughout. Also, in the experiment with TYK2/JAK1/JAK2 (compared with examples 4 and 18), the “fold less potent TYK2/JAK1/JAK2 inhibitor compared to analogs of Formula II (example 4) and Formula III (example 18)” value was over 100 ×.
On to `CCS(=O)(=O)N1CC(CC#N)(n2cc(-c3nc(Nc4ccc5ncn(C)c5c4)ncc3C)cn2)C1` [Compound 26, 2-(1-(ethylsulfonyl)-3-(4-(5-methyl-2-((1-methyl-1H-benzo[d]imidazol-6-yl)amino)pyrimidin-4-yl)-1H-pyrazol-1-yl)azetidin-3-yl)acetonitrile], for which the half-inhibitory concentration (IC50) at JAK1 is under 1 nM. Also, the “TYK2/JAK1/JAK2 inhibition (in words)” value with TYK2/JAK1/JAK2 is “potent TYK2/JAK1/JAK2 inhibitors”.

The values are drawn from patent US20260347348A1, “JAK1/JAK2/TYK2 Inhibitors For Topical Treatment of Dermatological Diseases” (Hangzhou Highlightll Pharmaceutical Co., Ltd, priority 2022, published 2026).
